Results: US20110144014A1, “CYTOKINE RECEPTOR MODULATORS AND USES THEREOF” (CENTRE HOSPITALIER UNIVERSITAIRE SAINTE-JUSTINE, priority 2005, published 2011)
Marks after values point to notes of the source that are not given here. Where a SMILES comes first, the peptide text is derived from it. [ ]: non-standard residue; d: D form.

Tested on: TNBS-induced colon inflammation
Assay: TNBS rat model of inflammatory bowel disease
Type: in vivo
Procedure: Colon inflammation was induced by intra-rectal/colon administration of the hapten trinitrobenzene sulphonic acid (TNBS) on male Sprague-Dawley rats (175-200 g) (Bouma, Nature Rev, 2003; Morris, Gastroenterology, 1989). Animals were anesthetized with isoflurane and TNBS dissolved in 50% ethanol (vol/vol). 120 mg/ml (TNBS) was administered into the colon (total volume of 0.25 ml per rat) using a polyethylene tube (PE50). The cannula was inserted at 8 cm from the anus and kept in place for at least 15 minutes after TNBS administration in order to prevent expulsion of the solution. Two hours prior to TNBS administration, the API-101 derivative API-101.10 (1.1 mg/kg) or 0.9% saline was administered intravenously via the caudal vein (total volume of 0.3 ml). […] A third group (control) was not injected with TNBS. Six days after administration of TNBS, rats were killed by CO2 inhalation. Day 6 was chosen as an endpoint because by day 7 spontaneous tissue regeneration begins and this can mask the therapeutic effect of the tested peptide or peptide derivative. Colon was removed and examined macroscopically (adhesions, ulcerations, discoloration and bleeding) and histologically (neutrophil infiltration, epithelial injury, crypt distortion and ulcerations) (Anthony et al., Int. J. Exp. Path. 76:215-224, 1995; Padol et al., Eur. J. of Gastroenterol. Hepatol. 12:257-265, 2000; Dieleman et al., […], 1997; Torres et al., Digestive Diseases and Sciences 44:2523-2529, 1999). Two animals per group were studied.
Histological transversal sections were cut at 4-6 cm from the proximal anal region and colored with the hematoxylin/eosin method. The TNBS model of inflammatory bowel disease reproduces the inflammatory characteristics and tissue injuries of Crohn's disease (e.g., in humans). Morphologically, the colon of the animals injected with TNBS presented thickening, edema, and discoloration of the intestinal wall indicating a significant inflammation. […] Histological features consisted of neutrophil infiltration into the epithelial layer and crypts, epithelial lining injury as well as the loss of crypts. […] The organization and integrity of the crypts in the API-101.10-treated colon is conserved even if there is still some inflammation (half the dose of API-101.10 was used as compared to the macroscopic analysis experiment).
Colon inflammation was induced by intra-rectal/colon administration of the hapten trinitrobenzene sulphonic acid (TNBS) as described above. Two hours prior to TNBS administration, peptides, peptidomimetics or 0.9% saline were administered intravenously (iv) via the caudal vein (various concentrations of mg/kg/d) (total volume of 0.3 ml). […] A third group (control) was not injected with TNBS. For intermittent administration, fifteen minutes after TNBS administration, 101.10 (0.25-1 mg/kg), 101.107 (0.2 mg/kg), 101.113 (0.05-1 mg/kg) were administered by intermittent intraperitoneal injection (ip). Also, these IL-1R antagonists were given twice a day (BID); Remicade® (anti-TNFα) (10 mg/kg) and dexamethasone (0.75 mg/kg) were administered intraperitoneally but only once a day (qd). The intrarectal administration (ir) of 101.10, 101.113 (1 and 2.5 mg/kg), and 5-ASA (50 mg/kg) was done one hour after TNBS administration, and twice a day, except for 5-ASA which is once a day. Finally, 101.10 (1-5 mg/kg) was also administered orally by gavage (po), twice a day. Forty-eight hours after administration of TNBS, rats were killed by CO2 inhalation. The colon was removed and assessed macroscopically (adhesions, ulcerations, discoloration and bleeding) and histologically (neutrophil infiltration, epithelial injury, crypt distortion and ulcerations). One to seven animals per group were studied, according to treatments. Myeloperoxidase (MPO) activity was measured on tissue lysates.

[1] = continuous infusion (ip), 0.25 mg/kg/d
[2] = continuous infusion (ip), 0.75 mg/kg/d
[3] = continuous infusion (ip), 2.2 mg/kg/d
[4] = continuous infusion (ip), 4.0 mg/kg/d
[5] = intermittent injection (ip), 0.25-BID mg/kg/d
[6] = intermittent injection (ip), 0.50-BID mg/kg/d
[7] = intermittent injection (ip), 1.0-BID mg/kg/d
[8] = intermittent injection (ip), 1.0-BID mg/kg/d, 12 h after TNBS
[9] = intermittent injection (ip), 1.0-qd mg/kg/d
[10] = intrarectal administration, 2.5-BID mg/kg/d
[11] = intrarectal administration, + PEG-400, 1.0-BID mg/kg/d
[12] = intrarectal administration, + PEG-400, 2.5-BID mg/kg/d
[13] = oral administration, 5.0-BID mg/kg/d
[14] = oral administration, + PEG-400, 1.0-BID mg/kg/d
[15] = oral administration, + PEG-400, 2.5-BID mg/kg/d
[16] = oral administration, + PEG-400, 5.0-BID mg/kg/d

CC(C)C[C@@H](NC(=O)[C@@H](CCC(=O)O)NC(=O)[C@H](NC(=O)[C@H](NC(=O)[C@@H](Cc1ccc(O)cc1)NC(=O)[C@H](N)CCCNC(=N)N)[C@H](C)O)C(C)C)C(=O)N[C@H](C)C(N)=O [API-101.10, RYTVELA] (H-[dR][dY][dT][dV][dE][dL][dA]-NH2; N-terminus and C-terminus assumed)
TNBS-induced colon damage (1.1 mg/kg iv 2 h before TNBS, then 2.2 mg/kg continuous ip infusion, day 6): prevented TNBS-induced colon damage
Histologic evaluation (median score) [1]: 2 (Small ulcer (<5 crypts))
MPO (% of TNBS + Saline) [1]: 34 % of TNBS + Saline
Histologic evaluation (median score) [2]: 4.4 median score
MPO (% of TNBS + Saline) [2]: 54 % of TNBS + Saline
Histologic evaluation (median score) [3]: 2 (Small ulcer (<5 crypts))
MPO (% of TNBS + Saline) [3]: 46 ± 22 % of TNBS + Saline
Histologic evaluation (median score) [4]: 2 (Small ulcer (<5 crypts))
MPO (% of TNBS + Saline) [4]: 82 % of TNBS + Saline
inflammatory features and MPO activity (gavage twice a day, 5.0 mg/kg/d): substantially reduces
Histologic evaluation (median score) [5]: 2.25 median score
MPO (% of TNBS + Saline) [5]: 85 % of TNBS + Saline
Macroscopic evaluation (median score) [5]: 0.87 median score
Histologic evaluation (median score) [6]: 3 (Medium ulcer (5-10 crypts))
MPO (% of TNBS + Saline) [6]: 126 % of TNBS + Saline
Macroscopic evaluation (median score) [6]: 0.87 median score
Histologic evaluation (median score) [7]: 1.25 median score
MPO (% of TNBS + Saline) [7]: 47 ± 9 % of TNBS + Saline
Macroscopic evaluation (median score) [7]: 0.8 ± 0.1 median score
Histologic evaluation (median score) [8]: 2.6 median score
Macroscopic evaluation (median score) [8]: 1.1 ± 0.1 median score
MPO (% of TNBS + Saline) (intermittent injection (ip), 1.0-BID mg/kg/d, 12 h after TNBS, leucocyte infiltration has already occurred): 123 ± 18 % of TNBS + Saline
Histologic evaluation (median score) [9]: 5 (Marked denudation (>20 crypts))
MPO (% of TNBS + Saline) [9]: 67 % of TNBS + Saline
Macroscopic evaluation (median score) [9]: 1.63 median score
MPO activity, macroscopic and histologic score (intraperitoneal osmotic pumps (continuous infusion), superior or equivalent to Kineret): marked reductions
MPO (% of TNBS + Saline) [10]: 111 ± 25 % of TNBS + Saline
Macroscopic evaluation (median score) [10]: 1.4 ± 0.1 median score
Histologic evaluation (median score) [11]: 3.2 median score
MPO (% of TNBS + Saline) [11]: 110 % of TNBS + Saline
Macroscopic evaluation (median score) [11]: 1.25t median score
Histologic evaluation (median score) [12]: 3.9 median score
MPO (% of TNBS + Saline) [12]: 59 % of TNBS + Saline
Macroscopic evaluation (median score) [12]: 1.17^† median score
reduction of MPO activity (intrarectally, 2.5 mg/kg/d): 50%
Histologic evaluation (median score) [13]: 2.25 median score
MPO (% of TNBS + Saline) [13]: 65 % of TNBS + Saline
Macroscopic evaluation (median score) [13]: 0.75 median score
Histologic evaluation (median score) [14]: 3.5 median score
MPO (% of TNBS + Saline) [14]: 167 % of TNBS + Saline
Macroscopic evaluation (median score) [14]: 1.0 median score
Histologic evaluation (median score) [15]: 3.5 median score
MPO (% of TNBS + Saline) [15]: 176 % of TNBS + Saline
Macroscopic evaluation (median score) [15]: 1.25 median score
Histologic evaluation (median score) [16]: 3.6 median score
MPO (% of TNBS + Saline) [16]: 57 % of TNBS + Saline
Macroscopic evaluation (median score) [16]: 1.5 median score
efficacy of intermittent administration (twice a day, surpasses dexamethasone, Remicade and 5-ASA): dose-dependent efficacy
